Results as given in patent US7994133B2, “Isozyme-specific antagonists of protein kinase C” (The Board of Trustees of the Leland Stanford Junior …, priority 2003, dated 2011).

Assays:
Type in all cases: cell-based
[1] = system: neonatal rat cardiac myocytes; experiment: Cardiac myocyte contraction rate measurement; conditions: 40 minutes after PMA addition, n=4, p<0.05; PMA alone versus with N-ΨεRACK
[2] = system: neonatal rat cardiac myocytes; experiment: Cardiac myocyte contraction rate measurement; conditions: for effect on ΨεRACK effect on contraction (negative chronotropy): PMA and ΨεRACK, prior application of the inhibitor; for agonistic effect on contraction rate of cardiac myocytes: prior to PMA; for effect on the decrease in contraction rate induced by PMA: 1 nM or 5 nM PMA about 20 minutes after peptide
Protocol: Primary cardiac myocyte cell cultures (90-95% pure) were prepared from newborn rats as previously described (Gray, M. O., et al., J. Biol. Chem. 272:30945-30951, (1997); Disatnik, M.-H., et al., Exp. Cell Res. 210:287-297, (1994)). Peptides (100 nM-1 μM applied concentration) were introduced into cells by transient permeabilization (Johnson, J. A., et al., Circ. Res. 79:1086-1099, (1996)) with sham permeabilization as control, or as carrier-peptide conjugates (30 nM-1 μM) (Derossi, D. et al., surpa (1994); Derossi, D. et al., surpa (1996); Théodore, L., et al., surpa (1995)) with a carrier-carrier dimer as a control.
Cells were treated for 10-20 minutes in the absence or presence of peptide followed by an additional incubation with or without 1 nM phorbol 12-myristate 13-acetate (PMA) for 10 or 20 minutes. Alternatively, cells were incubated for 10 minutes with 100 nM PMA (positive control) or in the absence of PMA.
Measurements of cardiac myocyte contraction rate were carried out essentially as previously described (Johnson, J. A., et al., J. Biol. Chem. 271:24962-24966, (1996). In brief, cardiomyocytes cultured on 35 mm plates were placed in a temperature-regulation apparatus at 37° C. (Medical Systems Corp.) and positioned on the stage of an inverted microscope (Carl Zeiss Inc.). The contraction rates of four cells in one microscopic field were determined every 2 minutes for 15 seconds each. The basal contraction rate (˜300 beats/minute) was stable over many hours.
Peptide SEQ ID Nos:3, 55 and 79 were introduced into cardiac myocyte cell cultures prepared from newborn rats by transient permeabilization, with sham permeabilization as control, or as carrier-peptide conjugates with a carrier-carrier dimer as control. The cells were treated for 10-20 minutes in the absence or presence of peptide followed by an additional incubation with or without phorbol 12-myristate 13-acetate (PMA) for 10 or 20 minutes. Alternatively, cells were incubated for 10 minutes with 100 nM PMA (positive control) or in the absence of PMA. The effect of the peptide and/or PMA was determined by measuring the contraction rate of the myocytes, as described in Example 1B.

rat cardiac myocytes = experiment: Simulated ischemia, cell damage by trypan blue exclusion; conditions: for effect on ΨεRACK-induced protection from ischemic damage: in combination with ΨεRACK; for effect on response to ischemia: peptide alone before simulated ischemia
Protocol: Cardiac myocytes were isolated from adult male rats as previously described (Chen et al., Proc. Natl. Acad. Sci., 96(22):12784 (1999)). Myocytes in incubation buffer were treated with a peptide or combination of peptides, prepared as described in Example 1, for 15 minutes. Myocytes were then pelleted at 1000 rpm for 1 minute in a degassed incubation buffer saturated with nitrogen and incubated at 37° C. for 3 hours to simulate ischemia. Cell damage was assessed after the 3 hours by trypan blue exclusion and percent cell with damage was determined as previously described (Chen et al., Proc. Natl. Acad. Sci., 96(22):12784 (1999)).

| Molecule | decrease in contraction rate induced by 10 nM PMA [1] [%] | effect on ΨεRACK-induced protection from ischemic damage (rat cardiac myocytes) | effect on ΨεRACK effect on contraction (negative chronotropy) [2] | effect on response to ischemia (rat cardiac myocytes) | agonistic effect on contraction rate of cardiac myocytes ([2]; peptide alone) | effect on the decrease in contraction rate induced by PMA [2] | other results |
| --- | --- | --- | --- | --- | --- | --- | --- |
| CCCCCCCCCCCCCC(=O)O[C@@H]1[C@@H](C)[C@@]2(O)[C@@H](C=C(CO)C[C@]3(O)C(=O)C(C)=C[C@@H]23)[C@@H]2C(C)(C)[C@]12OC(C)=O [PMA, phorbol 12-myristate 13-acetate, reference compound] | 47±3 |  |  |  |  |  | decrease from the basal contraction rate ([2]; PMA alone): 11±4% |
| COc1ccc2c(c[n+](C)c3c4cc5c(cc4ccc23)OCO5)c1OC [chelerythrine, reference compound] |  | reversed | inhibited |  |  |  |  |
| EAVSLKPT (listed as Homo sapiens) [εV1-2, reference compound] |  | reversed | abolished |  |  |  |  |
| HAAPIGYD (Alternative pseudo-epsilon RACK peptide) [A-ΨεRACK] |  | did not |  | no effect | not induced |  |  |
| HDAPIGYD (listed as Homo sapiens) [ΨεRACK, εPKC agonist peptide, εPKC amino acid residues 85-92] |  |  |  |  |  | reduced the decrease in contraction rate | reduction of ischemia-induced cell damage (rat cardiac myocytes; peptide 15 minutes before 3 hours simulated ischemia): 60%; decrease in contraction rate from the basal rate ([2]; peptide alone, 20 minutes after peptide addition): 9±2%; decrease from the basal contraction rate ([2]; ΨεRACK together with PMA): 44±6% |
| HNAPIGYD (A modification of SEQ ID NO3) [N-ΨεRACK, εPKC antagonist peptide derived from ΨεRACK, D substituted by N] | 24±5 | abolished |  | no effect | no agonistic effect | able to reduce the decrease in contraction rate | decrease in contraction rate ([2]; cells treated with N-ΨεRACK, then ΨεRACK at 15 minutes and 1 nM PMA at 30 minutes): < 10% |
